Results from patent US9546167B2, “Radiosynthesis of tau radiopharmaceuticals” (The General Hospital Corporation, priority 2013, dated 2017).

Experiments:
[1] = tested on: paired helical filaments of tau (PHF-tau); conditions: cited from earlier work
[2] = stability of formulated product by HPLC and radio-TLC, clarity and pH; assay type: physicochemical; conditions: over a period of 6 hours
Experimental: (§1) Three consecutive productions of [^18F]T807 were carried out to validate this radiopharmaceutical for human use. […] Due to the increased lipophilicity of 1b, an additional HPLC analysis was performed using an X-Select HSS T3 column (4.6×150 mm, 3.5 μm) and eluted with 50% CH3OH/H2O (pH 2 adjusted with HCl) with a flow rate of 1.2 mL/min, monitored at λ=254 nm. Radio-TLC was performed to verify the radiochemical purity of [^18F]T807 using silica gel plates and 80:20 (v/v) CH2Cl2:CH3OH mobile phase. Radio-TLC confirmed high radiochemical purity (>97%). […] The half-life was verified to be 109.7 minutes, as determined by a dose calibrator, and no long lived isotopes were observed (5 days), as determined by analysis on a HPGE detector after ^18F-decay. Formulated [^18F]T807 was free of pyrogens (Charles River Endosafe® PTS), sterile, and passed the Kryptofix® spot test (<50 μg/mL). […] Using this new methodology, [^18F]T807 was successfully validated for human PET studies, meeting all FDA and USP requirements for a PET radiopharmaceutical.

[3] = solubility of precursor in reaction / organic solvents; assay type: physicochemical
Experimental: The uncorrected radiochemical yield (RCY) of [^18F]T807 was 14±3% (n=3) and the total synthesis time was 60 minutes, including formulation. The product was prepared consistently with >95% radiochemical purity and the specific activity at the end of synthesis was 216±60 GBq/μmol (5837±1621 mCi/μmol). […] Therefore, the precursor could be added remotely to the reaction vial with minimal volume and eliminated the possibility of the precursor precipitating out of solution before use. Moreover, the fluorination condition simultaneously removed the t-BOC protecting group so there was no need for an additional deprotection step. Secondly, without being bound by any theory, it is thought that the protecting group may also be responsible for the higher radiochemical yields by inhibiting side reactions with the —NH of the indole moiety.

[4] = lipophilicity of precursor (HPLC analysis remark); assay type: physicochemical; conditions: qualitative
Experimental: as §1

[5] = tested on: hyperphosphorylated tau fibrillar aggregates; conditions: PET imaging, human subjects; cited from earlier work

[18F]CCC1CCN(c2ccn3c(n2)nc2ccccc23)CC1 [[^18F]T808, reference compound]
potency in vitro for paired helical filaments of tau (PHF-tau) [1]: excellent | selectivity in vitro for PHF-tau over Aβ-plaques [1]: excellent

[18F]c1ccc(-c2ccc3c(c2)[nH]c2ccncc23)cn1 [[^18F]T807]
potency in vitro for paired helical filaments of tau (PHF-tau) [1]: excellent | selectivity in vitro for PHF-tau over Aβ-plaques [1]: excellent | pH [2]: 5.5 | stability as measured by HPLC and radio-TLC [2]: maintained stability

CC(C)(C)OC(=O)n1c2ccncc2c2ccc(-c3ccc([N+](=O)[O-])nc3)cc21 [Compound 1b, tert-butyl 7-(6-nitropyridin-3-yl)-5H-pyrido[4,3-b]indole-5-carboxylate]
solubility in the reaction solvent (DMSO) ([3]; compared with 1a): increased | lipophilicity [4]: increased

O=[N+]([O-])c1ccc(-c2ccc3c(c2)[nH]c2ccncc23)cn1 [Compound 1a, 7-(6-nitropyridin-3-yl)-5H-pyrido[4,3-b]indole, reference compound]
solubility in most organic solvents [3]: only sparingly soluble

CC(=C(C#N)C#N)c1ccc2cc(N(C)CCF)ccc2c1 [[^18F]FDDNP]
distinction between amyloid-β plaques and tau [5]: does not distinguish | imaging of hyperphosphorylated tau fibrillar aggregates [5]: effective
